PMC8113725, “Structure–activity relationship of ipglycermide binding to phosphoglycerate mutases” (The Journal of Biological Chemistry, 2021)
Bridge positions count the residues as written; N and C are the ends. Square brackets hold non-standard residues; d marks the D form. Peptide text beside a SMILES is read from it. Phe(4-F) = N[C@@H](Cc1ccc(F)cc1)C(=O)O

How the values were obtained:
D. immitis iPGM = D. immitis iPGM (Dirofilaria immitis, UniProt F4ZE01); assay: biochemical
E. coli iPGM = E. coli iPGM (Escherichia coli, UniProt P37689); assay: biochemical; conditions: […]

CC(C)C[C@H](NC(=O)[C@H](Cc1ccc(O)cc1)NC(=O)[C@@H]1CSCC(=O)N[C@H](Cc2ccc(O)cc2)C(=O)N[C@@H](CC(=O)O)C(=O)N[C@@H](Cc2ccc(O)cc2)C(=O)N2CCC[C@H]2C(=O)NCC(=O)N[C@@H](CC(=O)O)C(=O)N[C@@H](Cc2ccccc2)C(=O)N1)C(=O)N[C@@H](Cc1ccc(O)cc1)C(=O)NCC(=O)N[C@H](C(=O)N[C@@H](CS)C(N)=O)[C@@H](C)O [Ce-2 Y7F]
IC50 (D. immitis iPGM; Di iPGM Ave IC50 (M)): 1.73e-09 M | IC50 (D. immitis iPGM; IC50 (M)): 1.78e-09 M | IC50 (E. coli iPGM): 1170 nM

CC[C@H](C)[C@@H]1NC(=O)[C@H](Cc2ccc(O)cc2)NC(=O)[C@H](CC(=O)O)NC(=O)[C@@H](Cc2ccc(O)cc2)NC(=O)CSC[C@@H](C(=O)N[C@@H](Cc2ccc(O)cc2)C(=O)N[C@@H](CC(C)C)C(=O)N[C@@H](Cc2ccc(O)cc2)C(N)=O)NC(=O)[C@H](Cc2ccc(O)cc2)NC(=O)[C@H](CC(=O)O)NC(=O)CNC1=O [Ce-2d P4I]
IC50 (D. immitis iPGM; Di iPGM Ave IC50 (M)): 2.21e-07 M | IC50 (E. coli iPGM): 21900 nM

CC(C)C[C@H](NC(=O)[C@H](Cc1ccc(O)cc1)NC(=O)[C@@H]1CSCC(=O)N[C@H](Cc2ccc(O)cc2)C(=O)N[C@@H](CCC(N)=O)C(=O)N[C@@H](Cc2ccc(O)cc2)C(=O)N2CCC[C@H]2C(=O)NCC(=O)N[C@@H](CC(=O)O)C(=O)N[C@@H](Cc2ccc(O)cc2)C(=O)N1)C(=O)N[C@@H](Cc1ccc(O)cc1)C(N)=O [Ce-2d D2Q]
IC50 (D. immitis iPGM; Di iPGM Ave IC50 (M)): 3.31e-07 M | IC50 (E. coli iPGM): 8040 nM

CC(C)C[C@H](NC(=O)[C@H](Cc1ccc(F)cc1)NC(=O)[C@@H]1CSCC(=O)N[C@H](Cc2ccc(O)cc2)C(=O)N[C@@H](CC(=O)O)C(=O)N[C@@H](Cc2ccc(O)cc2)C(=O)N2CCC[C@H]2C(=O)NCC(=O)N[C@@H](CC(=O)O)C(=O)N[C@@H](Cc2ccc(O)cc2)C(=O)N1)C(=O)N[C@@H](Cc1ccc(O)cc1)C(=O)NCC(=O)N[C@H](C(=O)N[C@@H](CS)C(N)=O)[C@@H](C)O [Ce-2 Y9(4F)F] ({CH2CO}-[dY]DYPGDYC[Phe(4-F)]LYGTC-NH2; thioether N-8)
IC50 (D. immitis iPGM; Di iPGM Ave IC50 (M)): 2.8e-09 M | IC50 (E. coli iPGM): 6930 nM

COc1ccc(C[C@@H]2NC(=O)CSC[C@@H](C(=O)N[C@@H](Cc3ccc(O)cc3)C(=O)N[C@@H](CC(C)C)C(=O)N[C@@H](Cc3ccc(O)cc3)C(N)=O)NC(=O)[C@H](Cc3ccc(O)cc3)NC(=O)[C@H](CC(=O)O)NC(=O)CNC(=O)[C@@H]3CCCN3C(=O)[C@H](Cc3ccc(O)cc3)NC(=O)[C@H](CC(=O)O)NC2=O)cc1 [Ce-2d Y1(4OMe)F]
IC50 (D. immitis iPGM; Di iPGM Ave IC50 (M)): 1.87e-08 M | IC50 (E. coli iPGM): 20000 nM

CC(C)C[C@H](NC(=O)[C@H](Cc1ccc(O)cc1)NC(=O)[C@@H]1CSCC(=O)N[C@H](Cc2ccc(O)cc2)C(=O)N[C@@H](CC(=O)O)C(=O)N[C@@H](Cc2ccc(O)cc2)C(=O)N2CCC[C@H]2C(=O)NCC(=O)N[C@@H](CC(=O)O)C(=O)N[C@@H](Cc2ccc(F)cc2)C(=O)N1)C(=O)N[C@@H](Cc1ccc(O)cc1)C(=O)NCC(=O)N[C@H](C(=O)N[C@@H](CS)C(N)=O)[C@@H](C)O [Ce-2 Y7(4F)F]
IC50 (D. immitis iPGM; Di iPGM Ave IC50 (M)): 1.67e-09 M | IC50 (E. coli iPGM): 12800 nM

COc1ccc(C[C@H]2NC(=O)CSC[C@@H](C(=O)N[C@@H](Cc3ccc(O)cc3)C(=O)N[C@@H](CC(C)C)C(=O)N[C@@H](Cc3ccc(O)cc3)C(N)=O)NC(=O)[C@H](Cc3ccc(O)cc3)NC(=O)[C@H](CC(=O)O)NC(=O)CNC(=O)[C@@H]3CCCN3C(=O)[C@H](Cc3ccc(O)cc3)NC(=O)[C@H](CC(=O)O)NC2=O)cc1 [Ce-2d Y1D(4OMe)F]
IC50 (D. immitis iPGM; Di iPGM Ave IC50 (M)): 6.18e-08 M | IC50 (E. coli iPGM): 18700 nM

CC(C)C[C@H](NC(=O)[C@H](Cc1ccc(O)cc1)NC(=O)[C@@H]1CSCC(=O)N[C@H](Cc2ccc(O)cc2)C(=O)N[C@@H](CC(=O)O)C(=O)N[C@@H](Cc2ccc(O)cc2)C(=O)N2CCC[C@H]2C(=O)NCC(=O)N[C@@H](CC(=O)O)C(=O)N[C@@H](Cc2ccc(O)cc2)C(=O)N1)C(=O)N[C@@H](Cc1ccc(O)cc1)C(=O)NCC(=O)NCC(=O)N[C@@H](Cc1c[nH]cn1)C(N)=O [Ce-2 T13G, C14H]
IC50 (D. immitis iPGM; Di iPGM Ave IC50 (M)): 1.12e-07 M | IC50 (E. coli iPGM): 12700 nM
